Consider four molecules from patent publication US9970945B2, “Compositions, methods, and assays using proteo-liposome-transfected oocytes for analyzing the structure, function, and activity of membrane proteins” (Georgia State University Research Foundation, Inc., priority 2013, dated 2018).

Molecules are shown by their SMILES.

Assay [1] addresses T1, E. coli SecA translocation ATPase (Escherichia coli, UniProt P10408).
T1 construct: made in house; host or cells: E. coli BL21(λDE3)/pT7-SecA (SecA); E. coli membranes supply SecYEG
Kind of assay: In vitro translocation ATPase inhibition kinetics. It is filed as biochemical. To be noted: requires SecYEG and precursors.

Assay [2] concerns the target Soluble SecA intrinsic ATPase (Escherichia coli, UniProt P10408). Kind of assay: Soluble SecA intrinsic ATPase inhibition kinetics. Conditions: data not shown. It is filed as biochemical.
For assay [3], the target named is T2, PaSecA (Pseudomonas aeruginosa, UniProt Q9LCT3).
T2 construct: made in house; host or cells: E. coli BL21.19
Kind of assay: SecA-liposomes ion-channel activity in Xenopus oocytes (two-electrode voltage clamp). In kind it is cell-based, P. aeruginosa. Conditions: injected PaSecA-liposomes in oocytes.

Assay [4] has as its target T3, Cx26 (Homo sapiens, UniProt P29033).
T3 construct: His6 (C); made in house; host or cells: insect Sf9 cells, Bac-to-Bac baculovirus system
The experiment in a line: Cx26-proteoliposome hemi-channel activity in Xenopus oocytes. It is filed as cell-based. The protocol: Voltage Clamp was performed to measure the opening of protein conducting channels. When the channel on the cell membrane was opened, ions pass through the membrane and generate the ionic current. Thus, the recording of ionic current could also mean the opening of the protein conducting channel. Currents through the plasma membranes of oocytes were measured after the oocytes were injected with tested materials. The cells were place in a recording chamber (BSC-HT, Medical System, Greenvale, N.Y.) on a supporting nylon mesh, so that the perfusion solution bathed both the top and the bottom surface of the oocytes. Two electrode voltage clamping was performed using an amplifier (Geneclamp 500, Axon instruments Inc., Foster City, Calif.) at room temperature (23-25° C.). Cells were impaled using electrodes filled with 3 M KCl. One of the electrode (1.0-2.0 MΩ) used for voltage recording was connected to the HS-2×1 L headstage (input resistance, […]), and the other electrode (0.3-0.6 MΩ) was used for current recording to the HS-2×10 MG headstage (maximum current, 130 μA). The electrode was connected through a silver wire that was chloridized freshly for each experiment. Oocytes were used for further experiments only if their leak currents measured as the difference before and after a leak subtraction were less than 10% of the peak currents. The leak subtraction was not applied for data acquisition and analysis. Current records were low-pass filtered (Bessel, 4-pole filter, 3 db at 5 kHz), digitized at 5 kHz (12 but resolution), and analyzed using pClamp6 (Axon Instruments). The highest and lowest records were eliminated, and then the data are presented as mean±S.E. (standard error; n, number of oocytes). The expression rates for each injection sample were also collected as a record to determine the channel activity efficiency.
The E. coli liposomes treated with detergent were mixed with purified Cx26 protein at 10:1 ratio. Then the mixture was dialyzed in dialysis solution (0.25 M Sucrose, 0.4 M KOAC, 20 mM triethanolamine hydrocholoride pH7.5, 1.5 mM Mg(OAC)2 and 1 mM EDTA) at 4° C. for 15-18 hours to reconstitute the Cx-26-proteoliposomes.
10 ng reconstituted Cx26-proteoliposomes was mixed with or without EGTA or CaCl2 and injected into oocytes. The injected oocytes were incubated at 23° C. for 30 mins with 1.8 mM CaCl2 to suppress the bubbling. Recording bath solution was 90K (90 mM KCl, 5 mM HEPES, 3 mM MgCl2) without Ca^2+. For Ca^2+ inhibition, the CaCl2 was added in the extracellular recording bath solution during the recording.

Assay [5] has as its target T4, EcSecA (Escherichia coli, UniProt P10408).
T4 construct: made in house; host or cells: E. coli BL21(λDE3)/pT7-SecA
In kind it is cell-based, E. coli. To be noted: channel activity assay.

Soluble SecA intrinsic ATPase, sequence (P10408 whole entry): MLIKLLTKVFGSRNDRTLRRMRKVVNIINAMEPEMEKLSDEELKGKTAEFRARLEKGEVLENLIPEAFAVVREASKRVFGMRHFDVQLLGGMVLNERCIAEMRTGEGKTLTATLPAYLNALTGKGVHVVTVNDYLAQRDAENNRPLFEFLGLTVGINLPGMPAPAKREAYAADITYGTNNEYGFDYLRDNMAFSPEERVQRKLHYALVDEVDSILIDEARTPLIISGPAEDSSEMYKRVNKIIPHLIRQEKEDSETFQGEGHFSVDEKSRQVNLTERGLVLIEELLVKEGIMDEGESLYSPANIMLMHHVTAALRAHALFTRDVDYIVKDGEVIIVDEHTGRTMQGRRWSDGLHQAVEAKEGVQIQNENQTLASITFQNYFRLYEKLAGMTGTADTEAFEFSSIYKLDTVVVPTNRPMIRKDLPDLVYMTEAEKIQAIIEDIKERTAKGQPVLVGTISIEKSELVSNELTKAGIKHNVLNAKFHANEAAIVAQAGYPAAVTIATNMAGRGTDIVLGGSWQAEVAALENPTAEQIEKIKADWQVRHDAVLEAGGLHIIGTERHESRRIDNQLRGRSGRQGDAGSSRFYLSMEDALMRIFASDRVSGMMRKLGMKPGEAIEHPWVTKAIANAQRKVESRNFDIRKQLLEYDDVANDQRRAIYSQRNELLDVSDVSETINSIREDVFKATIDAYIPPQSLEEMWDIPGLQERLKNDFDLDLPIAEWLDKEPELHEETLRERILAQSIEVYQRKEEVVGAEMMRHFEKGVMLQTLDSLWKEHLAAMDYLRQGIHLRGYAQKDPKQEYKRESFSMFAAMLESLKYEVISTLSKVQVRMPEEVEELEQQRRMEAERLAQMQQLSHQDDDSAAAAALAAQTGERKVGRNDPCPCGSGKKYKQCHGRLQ
T4 sequence (P10408 whole entry): as above
T1 sequence (P10408 whole entry): as above
T1 sequence (P0AGA2 whole entry, further chain): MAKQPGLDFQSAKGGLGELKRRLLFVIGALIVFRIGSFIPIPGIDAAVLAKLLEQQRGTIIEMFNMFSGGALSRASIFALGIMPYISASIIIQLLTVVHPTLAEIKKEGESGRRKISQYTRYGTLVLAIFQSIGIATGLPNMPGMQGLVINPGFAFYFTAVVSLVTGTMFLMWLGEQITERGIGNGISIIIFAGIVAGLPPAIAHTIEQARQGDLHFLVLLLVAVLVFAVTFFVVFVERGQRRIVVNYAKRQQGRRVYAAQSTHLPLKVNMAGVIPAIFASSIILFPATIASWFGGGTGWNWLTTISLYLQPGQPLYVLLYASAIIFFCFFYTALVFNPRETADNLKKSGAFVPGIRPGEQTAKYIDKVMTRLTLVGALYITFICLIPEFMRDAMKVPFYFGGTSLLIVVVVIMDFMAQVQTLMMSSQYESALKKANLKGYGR
T1 sequence (P0AG96 whole entry, further chain): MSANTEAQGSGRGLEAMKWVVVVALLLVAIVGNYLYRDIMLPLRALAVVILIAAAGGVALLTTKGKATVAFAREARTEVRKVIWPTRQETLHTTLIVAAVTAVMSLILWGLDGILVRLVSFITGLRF
T1 sequence (P0AG99 whole entry, further chain): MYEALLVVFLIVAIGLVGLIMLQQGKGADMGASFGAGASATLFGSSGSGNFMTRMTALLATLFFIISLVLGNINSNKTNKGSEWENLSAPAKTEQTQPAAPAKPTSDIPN
T2 sequence (Q9LCT3 whole entry): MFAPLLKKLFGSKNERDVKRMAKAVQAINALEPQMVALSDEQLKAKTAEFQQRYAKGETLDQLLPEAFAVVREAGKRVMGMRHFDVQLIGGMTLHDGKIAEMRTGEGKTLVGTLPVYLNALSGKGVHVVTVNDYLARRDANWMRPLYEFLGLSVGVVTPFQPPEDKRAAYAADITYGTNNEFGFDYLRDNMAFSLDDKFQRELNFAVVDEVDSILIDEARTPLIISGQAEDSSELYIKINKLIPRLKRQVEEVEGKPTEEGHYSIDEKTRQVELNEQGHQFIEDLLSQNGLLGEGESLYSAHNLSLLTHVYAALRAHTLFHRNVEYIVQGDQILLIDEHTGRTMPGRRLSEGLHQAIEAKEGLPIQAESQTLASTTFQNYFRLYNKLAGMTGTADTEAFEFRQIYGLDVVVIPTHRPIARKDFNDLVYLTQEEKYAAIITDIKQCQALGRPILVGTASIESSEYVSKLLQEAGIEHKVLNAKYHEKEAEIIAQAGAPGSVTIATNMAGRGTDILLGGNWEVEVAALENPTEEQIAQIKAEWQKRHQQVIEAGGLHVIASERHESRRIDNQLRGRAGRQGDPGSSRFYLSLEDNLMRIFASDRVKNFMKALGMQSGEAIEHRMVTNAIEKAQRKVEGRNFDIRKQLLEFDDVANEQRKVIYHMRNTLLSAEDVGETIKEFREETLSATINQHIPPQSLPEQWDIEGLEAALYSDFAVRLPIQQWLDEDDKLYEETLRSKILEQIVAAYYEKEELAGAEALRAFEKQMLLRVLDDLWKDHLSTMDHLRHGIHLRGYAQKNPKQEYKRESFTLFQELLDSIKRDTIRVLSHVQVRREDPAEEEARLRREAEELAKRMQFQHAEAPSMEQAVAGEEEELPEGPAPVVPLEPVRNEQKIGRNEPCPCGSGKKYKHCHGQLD

Turning to `O=C(O)c1c(Cl)c(Cl)c(Cl)c(Cl)c1-c1c2cc(I)c(=O)c(I)c-2oc2c(I)c(O)c(I)cc12` [RB, Rose Bengal], in assay [1], the “Inhibition kinetics with ATP” value was “non-competitive”. Further, the “Inhibition kinetics with RB” value is “competitive” in assay [2] (high ATP) and “non-competitive” in assay [2] (low ATP). For the same molecule, in assay [3], the “Inhibition kinetics with ATP, channel activity” value is given as “non-competitive”.
For the molecule `[Ca+2].[Cl-].[Cl-]` [CaCl2], in assay [4] (30 mM CaCl2 added to same extracellular bath after EGTA, 2 mins incubation), the Cx26 channel current was 1.3 μA. The “Effect on Cx26 channel activity” value in assay [4] (CaCl2 co-injected with 5 mM EGTA) is given as “reduced the activity”; in assay [4] (co-injection with 2 mM CaCl2), “slightly inhibited”. For the same molecule, in assay [4] (CaCl2 in extracellular bath solution), the “Half-time of inhibition of Cx26 channel activity” value was “about 1 min”.
For the molecule `O=C(O)CN(CCOCCOCCN(CC(=O)O)CC(=O)O)CC(=O)O` [EGTA], in assay [4] (10 mM EGTA in extracellular recording bath, from 2 μA), the Cx26 channel current amounted to 7 μA. Also, the “Cx26 hemi-channel activity (current)” value in assay [4] (co-injection with 5 mM EGTA, Cx26-liposomes alone around 2 μA) came out at 7 μA.
In the case of `Oc1ccc2c(c1)Oc1cc(O)ccc1C2C1CCCCC1` [22d], the “Potency against EcSecA relative to BsSecA” value in assay [5] is “about 2 fold”.
